Experimental data as given in the OPERA property sets (Mansouri et al. 2018).
Peptide text beside a SMILES is read from it.

SMILES	logP
CC(=O)N[C@@H](C)C(=O)N[C@@H](CC(C)C)C(N)=O (Ac-Ala-Leu-NH2)	-0.54
CCCCCCc1ccc(C(=O)OCCN(C)C)cc1	5.2
CCOC(=O)C(=Cc1ccc(Cl)cc1Cl)C(C)=O	3.67
O=Cc1cccs1	1.02
NNC(=O)c1ccccc1Br	0.26
Clc1cc(-c2ccccc2)c(Cl)c(Cl)c1Cl	6.41
CCC1=C(N2CC2)C(=O)C(C)=C(N2CC2)C1=O	1.35
OCc1ccc2ccccc2c1	2.21
Clc1cc(Cl)c(-c2c(Cl)ccc(Cl)c2Cl)cc1Cl	7.28
CCN(CC)C(=O)N(C)N=O	1.11
C[C@@H]1C[C@H]2[C@@H]3CCC4=CC(=O)C=C[C@]4(C)[C@@]3(F)[C@@H](O)C[C@]2(C)[C@@]1(O)C(=O)CO	1.83
CCOP(=S)(OCC)Oc1ccc(N)cc1	2.6
c1ccc(OCCOc2ccccc2)cc1	3.81
CC[n+]1cccc2ccccc21.[Br-]	-2.76
[N-]=[N+]=CC(=O)NCC(N)=O	-1.26
CC1CCCCC1	3.61
O=C1C=CCCC1	0.61
COC(=O)c1cccc(N2C(=O)CCC2=O)c1	0.36
COP(=S)(OC)SCN1C(=O)c2ccccc2C1=O	2.78
CCCCOc1cccc(OC(=O)NC)c1	2.96
CCC(C)[N+](=O)[O-] (configuration not stated)	1.2
O=C(NO)c1ccccc1	0.26
CCCCS	2.28

SMILES	logP
CNc1ccccc1C	2.16
CN(C)C(N(C)C)=S(I)c1ccc(O)cc1 (configuration not stated)	-0.88
N#CC(=Cc1ccccc1)C(N)=O	1.56
O=C(O)COc1ccccc1Cl	1.86
OCCCc1ccccc1	1.88
CC(C)C(=O)CC(=O)C(C)C	2.22
BrCCBr	1.96
COc1cccc(COC(C)=O)c1	2.02
N#CCCOc1ccccc1	1.61
O=C(O)CCCCN1C(=O)C=CC1=O	0.6
Cc1ccccc1C(O)c1ccccc1 (configuration not stated)	3.06
COC(=O)CCCc1ccccc1	2.77
NS(=O)(=O)c1nc2ccc(Cl)cc2s1	2.1
CC(=O)Nc1cccc(OCc2cccc(NC(=N)NC(=N)N)c2)c1	1.82
OC[C@@H](O)[C@@H](O)CO	-2.29
COCc1ccc(C(=O)O)cc1	1.76
OCCN1CCN(CCC=C2c3ccccc3Sc3ccc(Cl)cc32)CC1	4.18
CC(=O)OCCn1c([N+](=O)[O-])cnc1C	0.3
CC(=O)N(C)c1ccccc1	1.12
Cc1ccnc2c(O)cccc12	2.41
O=C(NP(=O)(N1CC1)N1CC1)c1ccc(I)cc1	2.25
OC1(c2ccc(Cl)cc2)CCN(CCCC2(c3ccc(F)cc3)OCCO2)CC1	3.84
O=[N+]([O-])c1ncn(CC(F)CO)n1 (configuration not stated)	-0.8

SMILES	logP
CCCCC(NC(Cc1ccccc1)C(=O)N1CCC(OCOC)CC1)C(=O)NC(CC1CCCCC1)C(O)CC(C(=O)NCCNc1noc(N)n1)C(C)C (configuration not stated)	4.11
Cn1nnnc1SCC1=C(C(=O)O)N2C(=O)C(NC(=O)CSCC#N)C2SC1 (configuration not stated)	-0.62
O=[N+]([O-])c1cccs1	1.55
c1ccc2[nH]ncc2c1	1.77
CC(C)c1cc([N+](=O)[O-])cc([N+](=O)[O-])c1O	3.1
CCOS(=O)(=O)OCC	1.14
CCN(CC)CCNC(=O)c1cc([N+](=O)[O-])c(N)cc1OC	2.11
COc1ccncc1	1
C=CCC(CC=C)(NC(C)=O)C(N)=O	0.05
CCn1cnc([N+](=O)[O-])n1	-0.19
Nc1ncccn1	-0.22
C=C1C(=O)OC2CC(C)C3CC(=O)C(CC12)C1(C3)C(=O)OC2CC(C)C3C=CC(=O)C3C(C)(O)C21 (configuration not stated)	1.66
NC1=C(Cl)C(=O)c2ccccc2C1=O	2.12
Cn1cnc([N+](=O)[O-])n1	-0.68
Cc1ccncc1	1.22
CS(=O)(=O)c1ccc(Cl)cc1	1.06
CS(=O)c1ccccc1 (configuration not stated)	0.55
COC(=O)c1cc(Oc2ccc(Cl)cc2Cl)ccc1[N+](=O)[O-]	4.48
CCCCSCS(=O)CC(C)NC(=O)C=Cc1c(C)[nH]c(=O)[nH]c1=O (configuration not stated)	0.82
CCOC=O	0.23
OCC(CO)(CBr)CBr	1.06
CCCCSC1=CC(=O)c2ccccc2C1=O	3.29
CC(=O)N[C@@H](C)C(=O)NCC(=O)N[C@@H](Cc1ccccc1)C(N)=O (Ac-Ala-Gly-Phe-NH2)	-0.71

SMILES	logP
O=C(CNC(=O)c1ccccc1)Oc1ccccc1	2.31
ClC(Cl)(Cl)C(Cl)(Cl)Cl	4.14
Cn1c([N+](=O)[O-])cnc1-c1ccc(C(N)=O)cc1	0.98
CC(=O)NC(Cc1ccc(O)cc1)C(N)=O (configuration not stated)	-0.87
O=C(O)c1cc([N+](=O)[O-])c(Cl)c([N+](=O)[O-])c1	2.5
Cc1cc2occ(C)c2c2oc(=O)ccc12	3.02
Cc1n[nH]c(C(=O)Nc2ccccc2)c1[N+](=O)[O-]	1.81
Oc1cccc(F)c1	1.93
[O-][n+]1ccccc1	-1.2
Cc1ccc(OC(=O)N(C)C)cc1	2.03
O=C(O)C1CCCCC1	1.96
CCc1ccccc1N	1.74
OCCNCc1ccccc1	0.79
O=C(NC(=O)c1ccccc1O)c1ccccc1O	1.92
CO	-0.77
CN(C)C(N(C)C)=S(I)c1ccccc1[N+](=O)[O-] (configuration not stated)	-0.92
CC(=O)Nc1ccc(Br)cc1	2.29
COc1ccc(C(C#N)C(C)C)cc1 (configuration not stated)	2.68
C[C@](N)(C(=O)O)c1cccc2ccccc12	-0.22
CNC(=O)Oc1cccc(OC)c1	1.3
OC1CCCCC1	1.23
CC(C)CCn1cnc([N+](=O)[O-])n1	1.34
O=C(CCn1cnc([N+](=O)[O-])n1)N1CCOCC1	-0.74

SMILES	logP
CC(C)(O)C(=O)O	-0.36
CCCN1CCCN(CCC)C1=S	2.83
Nc1ccc(CO)cc1	-0.22
CC=CC=CC (mixture of isomers)	2.8
c1ccc(COCc2ccccc2)cc1	3.31
COc1ccc(CCNCC(O)COc2cccc(C)c2)cc1OC (configuration not stated)	3
C[C@]12CCC(=O)C=C1C=C[C@@H]1[C@@H]2CC[C@@]2(C)[C@H]1CC[C@@]21CCC(=O)O1	2.68
CCc1cccc2cccnc12	2.93
CC(=O)NC(C(=O)NC(CCC(N)=O)C(N)=O)C(C)C (stereo not drawn) (Ac-Val-Gln-NH2; configuration not given here)	-1.82
CCCC(CC(C)=O)C(=O)O (configuration not stated)	1.31
CC(C)N1CCN=C1CN1CCCCSc2ccc(Cl)cc21	5.15
Nc1ccc(N)cc1	-0.3
O=C1CCC(c2ccccc2)(C2CCN(Cc3ccccc3)CC2)C(=O)N1 (configuration not stated)	3.55
CCC(C)c1ccc(OCC(=O)O)cc1 (configuration not stated)	3.12
CN(C)CC(CN1c2ccccc2Sc2ccccc21)N(C)C (configuration not stated)	4.76
c1ccc2nccnc2c1	1.32
Brc1ccc2ncccc2c1	2.83
COc1ccc(OC)c(CC(C)N)c1 (configuration not stated)	1.72
Fc1ccccc1Cn1cc[nH]c1=S	1.77
CCCCC(C#N)(Cn1ccnc1)c1ccccc1 (configuration not stated)	2.94
CC(C)c1nnc(S)n(N)c1=O	1.22
CNC(=S)NCCSCc1c[nH]cn1	0.16
CCOP(=S)(OCC)O/N=C(\C#N)c1ccccc1	4.39

SMILES	logP
O=[N+]([O-])c1cn[nH]c1	0.59
OCCNc1ccccc1	0.82
O=[N+]([O-])c1ccc(CCO)cc1	1.12
Cc1ccc(C)c2ccccc12	4.37
N#Cc1cccc(C=O)c1	1.18
CCCN(CCC)C(=O)SCC	3.21
O=C(NP(=O)(N1CC1)N1CC1)c1ccccc1Br	1.08
FC(F)(F)C(F)(F)F	2
NCCCCc1ccccc1	2.4
NC(=O)c1[nH]cnc1N	-1.1
COC(=O)NC(=S)Nc1ccccc1NC(=S)NC(=O)OC	1.4
CC(=O)Oc1c[nH]c2ccccc12	2.01
CCCN1CCCC[C@H]1C(=O)Nc1c(C)cccc1C	2.9
CCCCOC(=O)CNC(=O)CCCCSc1[nH]cnc2ncnc1-2	1.39
CCC(C)C(NC(=O)C(Cc1ccccc1)NC(C)=O)C(=O)NCC(N)=O (stereo not drawn) (Ac-Phe-Ile-Gly-NH2; configuration not given here)	0.34
O=NN(CCCl)C(=O)NC1CCCCC1	2.83
CCCC(=NOCC)C1C(=O)CC(C)(C)OC1=O (configuration not stated)	2.56
CCCN(CCC)CCC	2.79
Nc1ccc(C(=O)Oc2cccc(C(F)(F)F)c2)c(O)c1	3.61
O=C(O)c1cc([N+](=O)[O-])ccc1O	2.34
CCC(C)C(NC(=O)C(CCC(=O)O)NC(C)=O)C(=O)NC(Cc1ccccc1)C(N)=O (stereo not drawn) (Ac-Glu-Ile-Phe-NH2; configuration not given here)	0.43
NC(=O)c1ccc2[nH]ccc2c1	0.87
O=C(O)Cc1ccccc1Nc1ccccc1	3.49

SMILES	logP
CC12CCC(=O)C=C1CCC1C3CCC4(CCC(=O)O4)C3CCC12C (configuration not stated)	2.98
CCNc1nc(Cl)nc(NCC)n1	2.18
COP(=S)(NC(C)C)Oc1ccc(Cl)cc1Cl (configuration not stated)	4.3
NC(=S)c1ccccc1N	0.99
Nc1nc(N)nc(-c2cccc(SC(F)(F)F)c2)n1	3.2
COC(=O)C(=Cc1ccccc1)C(=O)OC	2.24
Cc1ccc(NS(=O)(=O)C(F)(F)F)cc1	3.6
CC(C)(C)OC(N)=O	0.48
Cc1ccc(O)c(-n2nc3ccccc3n2)c1	4.31
CNC(=O)Oc1cccc2c1OC(C)(C)C2	2.32
c1cncc(CN2CCCC2)c1	1.1
CC(=O)O[C@]1(C(C)=O)CC[C@H]2[C@@H]3C[C@H](C)C4=CC(=O)C=C[C@]4(C)[C@@]3(F)[C@@H](O)C[C@@]21C	1.5
COC(=O)C=Cc1ccccc1	2.62
COc1ccc(-c2nc3cnccc3o2)c(OC)c1	2.42
OC(c1ccccc1)(c1cncnc1)c1ccc(Cl)cc1Cl (configuration not stated)	2.56
Sc1ccccc1	2.52
CCOc1ccccc1-c1nc(N)nc(N)n1	1.03
O=c1[nH]cc(F)c(=O)[nH]1	-0.89
CCOC(=O)c1ccc(NC(=O)N(C)OC)cc1	2.24
